Data on 23 compounds can be found in patent US10144715B2, “Piperazine derivatives as liver X receptor modulators” (priority 2014, dated 2018).

Where two headings read alike, the source gives them in different places.

A word on the Ki: it is the equilibrium dissociation constant of an inhibitor or competing ligand from its target. Usually EC50 stands for the concentration that produces a half-maximal response.

One assay concerns the target LXR α LBD protein (Homo sapiens (Human), UniProt Q13133). Kind of assay: LXR α radioligand binding assay (SPA, competition with [3H]TO901317). As to conditions: read-out: LXRα Binding Ki.
The target in assay [1] is Gal4 DNA binding domain fused to the LBD of LXRα in HEK293 cells (Homo sapiens (Human), UniProt Q13133). Kind of assay: LXR luciferase transcriptional reporter gene assay, agonist mode, LXRα. Format: cell-based.
Gal4 DNA binding domain fused to the LBD of LXRα in HEK293 cells, sequence (Q13133 209-447): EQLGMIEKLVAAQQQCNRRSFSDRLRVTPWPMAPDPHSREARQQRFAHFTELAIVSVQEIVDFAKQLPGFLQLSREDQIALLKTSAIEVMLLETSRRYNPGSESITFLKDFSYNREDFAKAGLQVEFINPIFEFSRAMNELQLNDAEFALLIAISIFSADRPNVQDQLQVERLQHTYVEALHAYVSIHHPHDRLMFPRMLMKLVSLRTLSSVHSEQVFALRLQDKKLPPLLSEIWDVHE
Assay [2] concerns the target Gal4 DNA binding domain fused to the LBD of LXRβ in HEK293 cells (Homo sapiens (Human), UniProt P55055). Kind of assay: cell-based.
The next assay addresses LXR β LBD protein (Homo sapiens (Human), UniProt P55055). Put plainly: biochemical. In kind it is binding.
The mark [3] stands for this setting: Biological Test Example 2, agonist mode.
The mark [4] stands for this setting: agonist mode, read-out: Cell LXRα EC50.
[5] abbreviates: Biological Test Example 2, agonist mode, read-out: Cell LXRα EC50.

LXR β LBD protein, sequence (P55055 222-460 limits assumed): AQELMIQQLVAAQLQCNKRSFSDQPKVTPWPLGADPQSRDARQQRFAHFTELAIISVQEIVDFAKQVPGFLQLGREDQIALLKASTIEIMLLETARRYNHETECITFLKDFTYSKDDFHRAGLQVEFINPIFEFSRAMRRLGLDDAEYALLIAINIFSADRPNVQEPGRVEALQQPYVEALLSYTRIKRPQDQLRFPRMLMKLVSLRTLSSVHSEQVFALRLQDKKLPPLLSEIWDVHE
Gal4 DNA binding domain fused to the LBD of LXRβ in HEK293 cells, sequence (P55055 222-460 limits assumed): as above
LXR α LBD protein, sequence (Q13133 209-447): as the sequence (Q13133 209-447) above

As to `CC(C)[C@@H]1CN(c2ccc(F)c(S(C)(=O)=O)c2)CCN1C(=O)OC(C)C(F)(F)F` (stereo partly drawn) [5-3, 1,1,1-trifluoropropan-2-yl (2R)-4-(4-fluoro-3-(methylsulfonyl)phenyl)-2-isopropylpiperazine-1-carboxylate], on LXR α LBD protein, the Ki was 474 nM. The “Cell LXRα efficacy” value in assay [1] is 1595 (86) %. In addition, the EC50 in assay [1] came to 1590 nM; in assay [2], 198 nM.

For the compound `CC(C)[C@@H]1CN(c2ccc(CO)c(S(C)(=O)=O)c2)CCN1c1nc(C(F)(F)F)c(CO)s1` [11-17, (R)-(2-(4-(4-(hydroxymethyl)-3-(methylsulfonyl)phenyl)-2-isopropylpiperazin-1-yl)-4-(trifluoromethyl)thiazol-5-yl)methanol], the Ki at LXR β LBD protein (read-out: LXRβ Binding Ki) was determined as 53 nM. This compound returned an EC50 in assay [2] of 292 nM. The “Cell LXRβ efficacy” value in assay [2] (agonist mode) is 292 (89) %.

For `CC(C)[C@H]1CN(c2ccc(C#N)c(S(C)(=O)=O)c2)CCN1C[C@H]1CC[C@@H](C(F)(F)F)CC1` [Cpd No 50-1, 4-((S)-3-isopropyl-4-(((1s,4R)-4-(trifluoromethyl)cyclohexyl)methyl)piperazin-1-yl)-2-(methylsulfonyl)benzonitrile], the Ki on LXR α LBD protein came out at 107 nM. The “Cell LXRα efficacy” value in assay [1] is given as 181 (100) %. In addition, the concentration giving a half-maximal response (EC50) in assay [1] (read-out: Cell LXRα EC50) was 181 nM. Further, in assay [2] (setting [3]), the “Cell LXRβ efficacy” value was 88%.

As for `CC(C)C1CN(c2ccc(C#N)c(S(C)(=O)=O)c2)CCN1CC1CCC(C(F)(F)F)CC1` [50-2, 4-((S)-3-isopropyl-4-(((1r,4S)-4-(trifluoromethyl)cyclohexyl)methyl)piperazin-1-yl)-2-(methylsulfonyl)benzonitrile], the Ki on LXR α LBD protein is 358 nM. Besides, in assay [1], the “Cell LXRα efficacy” value is given as 721 (72) %. Also, the EC50 in assay [1] (read-out: Cell LXRα EC50) was 721 nM. Besides, the “Cell LXRβ efficacy” value in assay [2] (setting [3]) is on record as 542 (85) %.

On to `CC(C)[C@@H]1CN(c2ccc(F)c(S(C)(=O)=O)c2)CCN1c1ncc(C(=O)N(C)C2CN(C(=O)OC(C)(C)C)C2)c(C(F)(F)F)n1` [17-22, tert-butyl (R)-3-(2-(4-(4-fluoro-3-(methylsulfonyl)phenyl)-2-isopropylpiperazin-1-yl)-N-methyl-4-(trifluoromethyl)pyrimidine-5-carboxamido)azetidine-1-carboxylate], for which the Ki at LXR α LBD protein came to 670 nM. Also, the EC50 in assay [1] and in assay [2] was greater than 20000 nM each time.

In the case of `CC(C)[C@@H]1CN(c2cccc(S(C)(=O)=O)c2)CCN1c1ccc(C(C)(F)F)cn1` [20-2, (R)-1-(5-(1,1-difluoroethyl)pyridin-2-yl)-2-isopropyl-4-(3-(methylsulfonyl)phenyl)piperazine], on LXR β LBD protein (read-out: LXRβ Binding Ki), the Ki was 73 nM. The compound further came in with an EC50 in assay [2] of 706 nM. For the same compound, the “Cell LXRβ efficacy” value in assay [2] (agonist mode) is reported as 706 (43) %.

Take `CC1(C)CCC(O)(CN2CCN(c3cccc(S(C)(=O)=O)c3)C[C@H]2c2ccccc2)CC1` [53-2, (R)-4,4-dimethyl-1-((4-(3-(methylsulfonyl)phenyl)-2-phenylpiperazin-1-yl)methyl)cyclohexan-1-ol]: the Ki at LXR β LBD protein (Biological Test Example 1, read-out: LXRβ Binding Ki) amounted to 609 nM. In assay [2], this compound displayed an EC50 of 2080 nM. The “Cell LXRβ efficacy” value in assay [2] (setting [3]) is 2082 (56) %.

Turning to `CC(C)[C@@H]1CN(c2ccc(F)c(S(C)(=O)=O)c2)CCN1c1ccc(C(C)(O)C(F)(F)F)cn1` (stereo partly drawn) [20-3, 1,1,1-trifluoro-2-(6-((R)-4-(4-fluoro-3-(methylsulfonyl)phenyl)-2-isopropylpiperazin-1-yl)pyridin-3-yl)propan-2-ol], at LXR β LBD protein (read-out: LXRβ Binding Ki), the Ki came to 52 nM. The EC50 in assay [2] stood at 443 nM. Also, in assay [2] (agonist mode), the “Cell LXRβ efficacy” value is on record as 443 (48) %.

Take `CC(C)[C@@H]1CN(c2ccc(F)c(S(C)(=O)=O)c2)CCN1c1nccc(CO)n1` [11-15, (R)-(2-(4-(4-fluoro-3-(methylsulfonyl)phenyl)-2-isopropylpiperazin-1-yl)pyrimidin-4-yl)methanol]: the Ki at LXR β LBD protein turned out to be 930 nM. In assay [2], this compound returned an EC50 of 2480 nM. Further, the “Cell LXRβ efficacy” value in assay [2] (agonist mode) is given as 2479 (33) %.

For the compound `CC(C)[C@@H]1CN(c2ccc(CO)c(S(C)(=O)=O)c2)CCN1c1ccc(C(F)(F)F)nc1` [Cpd No 20-4, (R)-(4-(3-isopropyl-4-(6-(trifluoromethyl)pyridin-3-yl)piperazin-1-yl)-2-(methylsulfonyl)phenyl)methanol], the Ki at LXR β LBD protein (read-out: LXRβ Binding Ki) worked out at 20 nM. It took 28 nM to reach a half-maximal effect in assay [2] (EC50). The “Cell LXRβ efficacy” value in assay [2] (agonist mode) is listed as 28 (105) %.

Turning to `Cc1nc(N2CCN(c3cccc(S(C)(=O)=O)c3)C[C@H]2C(C)C)ccc1C(F)(F)F` [Cpd No 37-2, (R)-2-isopropyl-1-(6-methyl-5-(trifluoromethyl)pyridin-2-yl)-4-(3-(methylsulfonyl)phenyl)piperazine], the Ki on LXR β LBD protein (read-out: LXRβ Binding Ki) was determined as 2 nM. Also, in assay [2], the “Cell LXRβ efficacy” value was 49 (98) % and the midpoint of the response, the EC50, lay at 49 nM.

As to `CC(C)[C@@H]1CN(c2cccc(S(C)(=O)=O)c2)CCN1c1ccc(C(F)F)cn1` [7-34, (R)-1-(5-(difluoromethyl)pyridin-2-yl)-2-isopropyl-4-(3-(methylsulfonyl)phenyl)piperazine], the Ki on LXR α LBD protein is 3280 nM. For the same compound, the “Cell LXRα efficacy” value in assay [1] is 13999 (55) %. Moreover, in assay [1] (setting [4]), the EC50 stood at 14000 nM.

As for `CCOC(=O)c1cnc(N2CCN(c3ccc(-c4nc(C)no4)c(S(C)(=O)=O)c3)C[C@H]2C(C)C)nc1C(F)(F)F` [9-12, ethyl (R)-2-(2-isopropyl-4-(4-(3-methyl-1,2,4-oxadiazol-5-yl)-3-(methylsulfonyl)phenyl)piperazin-1-yl)-4-(trifluoromethyl)pyrimidine-5-carboxylate], at LXR α LBD protein, the Ki was found to be 2290 nM. For the same compound, in assay [1], the “Cell LXRα efficacy” value is on record as 15144 (26) %. Moreover, the EC50 in assay [1] (setting [4]) worked out at 15100 nM.

Consider `CCOC(=O)c1cnc(N2CCN(c3ccc(COC(C)=O)c(S(C)(=O)=O)c3)C[C@H]2C(C)C)nc1C(F)(F)F` [9-10, ethyl (R)-2-(4-(4-(acetoxymethyl)-3-(methylsulfonyl)phenyl)-2-isopropylpiperazin-1-yl)-4-(trifluoromethyl)pyrimidine-5-carboxylate], for which the Ki on LXR α LBD protein worked out at 96 nM. For the same compound, the “Cell LXRα efficacy” value in assay [1] is reported as 243 (59) %. Further, in assay [1] (setting [4]), the EC50 was 243 nM.

Regarding `CC(C)[C@H]1CN(c2ccc(CO)c(S(C)(=O)=O)c2)CCN1C[C@@H]1CCN(CC(F)(F)F)C1` (single isomer, unassigned) [48-59], on LXR α LBD protein (Biological Test Example 1), the Ki was determined as 3160 nM. Besides, in assay [1], the “Cell LXRα efficacy” value is 1189 (54) %. The EC50 in assay [1] (setting [5]) was 1190 nM.

Take `CC(C)[C@@H]1CN(c2ccc(F)c(S(C)(=O)=O)c2)CCN1c1ccc(C(F)(F)F)nn1` [7-49, (R)-3-(4-(4-fluoro-3-(methylsulfonyl)phenyl)-2-isopropylpiperazin-1-yl)-6-(trifluoromethyl)pyridazine]: at LXR α LBD protein, the Ki was found to be 508 nM. In addition, the “Cell LXRα efficacy” value in assay [1] is given as 1335 (112) %. Besides, in assay [1] (setting [4]), the EC50 is 1340 nM.

For `CC(C)[C@@H]1CN(c2ccc(F)c(S(C)(=O)=O)c2)CCN1C(=O)OC(C)(C)C(F)(F)F` [5-2, 1,1,1-trifluoro-2-methylpropan-2-yl (R)-4-(4-fluoro-3-(methylsulfonyl)phenyl)-2-isopropylpiperazine-1-carboxylate], the Ki on LXR α LBD protein was 163 nM. Further, in assay [1], the “Cell LXRα efficacy” value is recorded as 947 (73) % and a half-maximal effect (EC50) was put at 947 nM. In assay [2], this compound gave an EC50 of 111 nM.

As for `CC(C)[C@@H]1CN(c2cccc(S(C)(=O)=O)c2)CCN1c1ccc(C2CC2)nn1` [7-47, (R)-3-cyclopropyl-6-(2-isopropyl-4-(3-(methylsulfonyl)phenyl)piperazin-1-yl)pyridazine], the Ki on LXR α LBD protein stood at 3100 nM. For the same compound, the “Cell LXRα efficacy” value in assay [1] was 4921 (84) %. Besides, the EC50 in assay [1] (read-out: Cell LXRα EC50) turned out to be 4920 nM.

As to `CC(C)[C@@H]1CN(c2ccc(F)c(S(N)(=O)=O)c2)CCN1c1ccc(C(F)(F)F)cn1` [Cpd No 18-1, (R)-2-fluoro-5-(3-isopropyl-4-(5-(trifluoromethyl)pyridin-2-yl)piperazin-1-yl)benzenesulfonamide], the Ki on LXR α LBD protein amounted to 73 nM. Further, the “Cell LXRα efficacy” value in assay [1] was 591 (104) %. Moreover, the EC50 in assay [1] (setting [4]) came to 591 nM.

Turning to `CS(=O)(=O)c1cccc(N2CCN(CC3CCC(C(F)(F)F)O3)[C@@H](c3ccc(F)cc3)C2)c1` (stereo partly drawn) [48-74, (2S)-2-(4-fluorophenyl)-4-(3-(methylsulfonyl)phenyl)-1-((5-(trifluoromethyl)tetrahydrofuran-2-yl)methyl)piperazine], the Ki on LXR α LBD protein (Biological Test Example 1) turned out to be 11400 nM. In addition, in assay [1] (setting [5]), the EC50 is greater than 20000 nM.

Take `Cc1nnc(-c2ccc(N3CCN(c4ncc(CO)c(C(F)(F)F)n4)[C@H](C(C)C)C3)cc2S(C)(=O)=O)s1` [11-11, (R)-(2-(2-isopropyl-4-(4-(5-methyl-1,3,4-thiadiazol-2-yl)-3-(methylsulfonyl)phenyl)piperazin-1-yl)-4-(trifluoromethyl)pyrimidin-5-yl)methanol]: the Ki at LXR α LBD protein came out at 2050 nM. In addition, the “Cell LXRα efficacy” value in assay [1] is 3508 (31) %. Further, in assay [1] (setting [4]), the EC50 turned out to be 3510 nM.

In the case of `Cc1nc(N2CCN(c3ccc(F)c(S(C)(=O)=O)c3)C[C@H]2C(C)C)ncc1S(C)(=O)=O` [Cpd No 3-3, (R)-2-(4-(4-fluoro-3-(methylsulfonyl)phenyl)-2-isopropylpiperazin-1-yl)-4-methyl-5-(methylsulfonyl)pyrimidine], the Ki at LXR α LBD protein was greater than 3330 nM. The “Cell LXRα efficacy” value in assay [1] is 9543 (37) %. Further, in assay [1] (setting [4]), the EC50 was 9540 nM.

Regarding `CC(C)[C@@H]1CN(c2ccc(CO)c(S(C)(=O)=O)c2)CCN1c1nc(C(F)(F)F)c(C(C)(C)O)s1` [Cpd No 27-1, (R)-2-(2-(4-(4-(hydroxymethyl)-3-(methylsulfonyl)phenyl)-2-isopropylpiperazin-1-yl)-4-(trifluoromethyl)thiazol-5-yl)propan-2-ol], the Ki at LXR α LBD protein stood at 27 nM. For the same compound, in assay [1], the “Cell LXRα efficacy” value is recorded as 225 (97) %. The EC50 in assay [1] (setting [4]) was found to be 225 nM.
